Earlier results as cited in US10238678B2, “Therapeutic methods” (GlaxoSmithKline LLC, priority 2011, dated 2019).

Compound: NC(=O)c1ncn([C@@H]2O[C@H](CO)[C@@H](O)[C@H]2O)n1 [Ribavirin]
- patients with significant hemolysis (currently recommended doses): 10-20%
- teratogenicity and embryotoxicity (in vivo): teratogenic and embryotoxic
